From ChEMBL document CHEMBL4665658, “Quinoline and thiazolopyridine allosteric inhibitors of MALT1” (Bioorg Med Chem Lett, 2019)

Legend:
[1] = biological target: Cathepsin S (Homo sapiens) (UniProt P25774); experiment: Inhibition of cathepsin S (unknown origin) at 10 uM
[2] = Aqueous solubility of the compound at pH 7; assay type: physicochemical; conditions: aqueous medium
[3] = biological target: Caspase-9 (Homo sapiens) (UniProt P55211); experiment: Inhibition of Caspase 9 (unknown origin) at 10 uM
Caspase-9 (Homo sapiens), sequence (P55211 1-315 limits assumed): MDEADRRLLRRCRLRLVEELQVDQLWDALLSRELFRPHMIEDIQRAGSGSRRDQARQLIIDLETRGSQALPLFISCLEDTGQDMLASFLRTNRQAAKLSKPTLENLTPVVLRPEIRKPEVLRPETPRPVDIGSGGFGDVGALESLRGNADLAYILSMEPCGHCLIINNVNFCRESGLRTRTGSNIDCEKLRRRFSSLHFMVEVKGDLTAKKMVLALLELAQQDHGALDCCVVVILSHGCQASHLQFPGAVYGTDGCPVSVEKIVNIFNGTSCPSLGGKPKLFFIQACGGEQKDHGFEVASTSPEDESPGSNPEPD
Caspase-9 (Homo sapiens), sequence (P55211 331-416 limits assumed): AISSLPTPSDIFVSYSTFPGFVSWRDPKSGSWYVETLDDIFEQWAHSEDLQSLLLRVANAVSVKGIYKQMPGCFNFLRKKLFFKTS

[4] = biological target: Caspase-10 (Homo sapiens) (UniProt Q92851); experiment: Inhibition of Caspase 10 (unknown origin) at 10 uM
Caspase-10 (Homo sapiens), sequence (Q92851 220-415 limits assumed): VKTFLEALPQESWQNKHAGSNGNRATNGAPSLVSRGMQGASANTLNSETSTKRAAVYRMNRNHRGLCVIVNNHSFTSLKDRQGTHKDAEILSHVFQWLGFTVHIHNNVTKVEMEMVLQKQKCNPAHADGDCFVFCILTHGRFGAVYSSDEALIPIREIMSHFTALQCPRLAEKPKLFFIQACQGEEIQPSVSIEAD
Caspase-10 (Homo sapiens), sequence (Q92851 416-521 limits assumed): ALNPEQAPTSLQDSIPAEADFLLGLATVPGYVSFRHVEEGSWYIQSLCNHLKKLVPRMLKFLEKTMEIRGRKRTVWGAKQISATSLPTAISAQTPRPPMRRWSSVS

[5] = Oral bioavailability in mouse at 5 mg/kg; assay type: ADME, organism-based; conditions: in vivo
[6] = species: Homo sapiens; experiment: Inhibition of Calpain (unknown origin) at 10 uM
[7] = biological target: Trypsin (Homo sapiens) (UniProt P07477+P07478+P35030); experiment: Inhibition of trypsin (unknown origin) at 10 uM; assay type: protein assay
[8] = biological target: Procathepsin L (Homo sapiens) (UniProt P07711); experiment: Inhibition of cathepsin L (unknown origin) at 10 uM
Procathepsin L (Homo sapiens), sequence (P07711 114-333 limits assumed): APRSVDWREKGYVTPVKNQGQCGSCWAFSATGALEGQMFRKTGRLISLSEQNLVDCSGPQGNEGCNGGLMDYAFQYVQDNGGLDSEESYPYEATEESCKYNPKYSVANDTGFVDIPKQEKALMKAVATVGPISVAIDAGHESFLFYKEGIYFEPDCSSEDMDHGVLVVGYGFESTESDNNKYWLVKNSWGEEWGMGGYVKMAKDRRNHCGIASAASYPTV

[9] = Half life in mouse at 1 mg/kg, iv or 5 mg/kg, po; assay type: ADME, organism-based; conditions: in vivo
[10] = biological target: Kallikrein-1 (Homo sapiens) (UniProt P06870); experiment: Inhibition of KLK1 (unknown origin) at 10 uM
Kallikrein-1 (Homo sapiens), sequence (P06870 25-262 limits assumed): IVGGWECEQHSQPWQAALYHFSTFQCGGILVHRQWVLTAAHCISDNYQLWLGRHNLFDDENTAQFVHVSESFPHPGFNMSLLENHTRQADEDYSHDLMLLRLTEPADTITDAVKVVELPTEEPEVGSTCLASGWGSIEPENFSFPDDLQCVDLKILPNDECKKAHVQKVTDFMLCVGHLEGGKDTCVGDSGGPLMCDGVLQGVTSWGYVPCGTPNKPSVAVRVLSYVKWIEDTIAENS

[11] = biological target: Kallikrein-2 (Homo sapiens) (UniProt P20151); experiment: Inhibition of KLK2 (unknown origin) at 10 uM
Kallikrein-2 (Homo sapiens), sequence (P20151 whole entry): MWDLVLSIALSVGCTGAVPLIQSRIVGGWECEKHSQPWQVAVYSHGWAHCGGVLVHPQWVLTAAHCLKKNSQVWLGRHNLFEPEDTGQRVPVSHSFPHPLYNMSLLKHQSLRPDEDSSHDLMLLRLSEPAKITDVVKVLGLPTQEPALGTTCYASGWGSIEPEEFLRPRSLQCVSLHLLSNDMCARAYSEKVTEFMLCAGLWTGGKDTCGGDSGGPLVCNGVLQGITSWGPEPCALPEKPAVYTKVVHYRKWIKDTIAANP

[12] = biological target: Caspase-3 (Homo sapiens) (UniProt P42574); experiment: Inhibition of Caspase 3 (unknown origin) at 10 uM
Caspase-3 (Homo sapiens), sequence (P42574 29-175 limits assumed): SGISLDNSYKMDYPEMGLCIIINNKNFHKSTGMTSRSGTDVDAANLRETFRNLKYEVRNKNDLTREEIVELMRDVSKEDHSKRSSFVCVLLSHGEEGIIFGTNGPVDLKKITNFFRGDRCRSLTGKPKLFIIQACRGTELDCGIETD
Caspase-3 (Homo sapiens), sequence (P42574 176-277 limits assumed): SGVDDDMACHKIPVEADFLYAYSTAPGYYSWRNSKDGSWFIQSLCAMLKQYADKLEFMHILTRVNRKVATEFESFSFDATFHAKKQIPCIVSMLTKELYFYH

[13] = Plasma protein binding in mouse assessed as unbound fraction; assay type: ADME, cell-free; parameters: dose or concentration left out as unconfirmed; conditions: read-out: PPB
[14] = biological target: T1, Caspase-4 (Homo sapiens) (UniProt P49662); experiment: Inhibition of Caspase 4 (unknown origin) at 10 uM
T1 sequence (whole entry): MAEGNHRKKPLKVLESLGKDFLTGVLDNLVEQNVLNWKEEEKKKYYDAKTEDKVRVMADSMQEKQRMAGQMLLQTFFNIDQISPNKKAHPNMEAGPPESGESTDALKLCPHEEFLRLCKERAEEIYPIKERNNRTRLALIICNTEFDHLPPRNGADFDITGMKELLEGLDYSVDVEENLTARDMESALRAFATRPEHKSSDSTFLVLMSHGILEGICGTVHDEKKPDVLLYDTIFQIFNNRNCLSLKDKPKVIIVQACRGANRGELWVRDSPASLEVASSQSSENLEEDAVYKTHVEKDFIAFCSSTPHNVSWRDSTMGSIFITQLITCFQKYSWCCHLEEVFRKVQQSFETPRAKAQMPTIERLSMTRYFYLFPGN

[15] = Clearance in mouse at 1 mg/kg, iv; assay type: ADME, organism-based; conditions: in vivo
[16] = biological target: T2, Cathepsin K (Homo sapiens) (UniProt P43235); experiment: Inhibition of cathepsin K (unknown origin) at 10 uM
T2 sequence (whole entry): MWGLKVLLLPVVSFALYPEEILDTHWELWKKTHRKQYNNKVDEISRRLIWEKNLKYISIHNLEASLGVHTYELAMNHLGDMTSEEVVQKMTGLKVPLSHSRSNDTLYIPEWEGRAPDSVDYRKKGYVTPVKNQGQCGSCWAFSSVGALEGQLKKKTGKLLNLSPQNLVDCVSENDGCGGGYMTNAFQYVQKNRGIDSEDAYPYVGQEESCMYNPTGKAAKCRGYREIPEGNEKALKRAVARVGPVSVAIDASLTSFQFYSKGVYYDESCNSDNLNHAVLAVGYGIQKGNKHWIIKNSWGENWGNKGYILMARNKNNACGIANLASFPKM

[17] = Metabolic stability in mouse microsome assessed as half life; assay type: ADME; parameters: dose or concentration left out as unconfirmed; conditions: microsomes, read-out: Stabilty
[18] = biological target: Cathepsin B (Homo sapiens) (UniProt P07858); experiment: Inhibition of cathepsin B (unknown origin) at 10 uM
[19] = species: Homo sapiens; experiment: Inhibition of tryptase (unknown origin) at 10 uM
[20] = AUC (0 to infinity) in mouse at 1 mg/kg, iv or 5 mg/kg, po; assay type: ADME, organism-based; parameters: dose 5 mg/kg; conditions: in vivo
[21] = biological target: Prothrombin (Homo sapiens) (UniProt P00734); experiment: Inhibition of thrombin (unknown origin) at 10 uM
[22] = Plasma protein binding in human assessed as unbound fraction; assay type: ADME, cell-free; conditions: read-out: PPB
[23] = biological target: Urokinase-type plasminogen activator (Homo sapiens) (UniProt P00749); experiment: Inhibition of urokinase (unknown origin) at 10 uM
[24] = biological target: T3, Caspase-6 (Homo sapiens) (UniProt P55212); experiment: Inhibition of Caspase 6 (unknown origin) at 10 uM
T3 sequence (whole entry): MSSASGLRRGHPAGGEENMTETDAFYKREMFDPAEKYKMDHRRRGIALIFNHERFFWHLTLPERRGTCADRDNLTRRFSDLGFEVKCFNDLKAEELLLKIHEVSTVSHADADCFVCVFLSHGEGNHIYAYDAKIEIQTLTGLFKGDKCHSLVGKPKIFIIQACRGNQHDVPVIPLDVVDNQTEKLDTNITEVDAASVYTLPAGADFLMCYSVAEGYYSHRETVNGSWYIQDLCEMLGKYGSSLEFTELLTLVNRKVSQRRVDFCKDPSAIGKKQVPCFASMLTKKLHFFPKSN

[25] = biological target: T4, Pro-cathepsin H (Homo sapiens) (UniProt P09668); experiment: Inhibition of cathepsin H (unknown origin) at 10 uM
T4 sequence (whole entry): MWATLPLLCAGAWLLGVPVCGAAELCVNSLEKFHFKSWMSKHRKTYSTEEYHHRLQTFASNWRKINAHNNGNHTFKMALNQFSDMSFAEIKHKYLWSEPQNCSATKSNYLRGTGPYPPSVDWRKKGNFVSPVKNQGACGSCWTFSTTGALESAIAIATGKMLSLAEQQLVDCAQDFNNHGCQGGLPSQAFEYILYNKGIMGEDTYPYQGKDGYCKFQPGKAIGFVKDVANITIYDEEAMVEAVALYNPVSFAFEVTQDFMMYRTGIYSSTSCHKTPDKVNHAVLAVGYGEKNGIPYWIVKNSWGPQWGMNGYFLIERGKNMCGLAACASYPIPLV

[26] = biological target: T5, Legumain (Homo sapiens) (UniProt Q99538); experiment: Inhibition of Legumain (unknown origin) at 10 uM
T5 sequence (whole entry): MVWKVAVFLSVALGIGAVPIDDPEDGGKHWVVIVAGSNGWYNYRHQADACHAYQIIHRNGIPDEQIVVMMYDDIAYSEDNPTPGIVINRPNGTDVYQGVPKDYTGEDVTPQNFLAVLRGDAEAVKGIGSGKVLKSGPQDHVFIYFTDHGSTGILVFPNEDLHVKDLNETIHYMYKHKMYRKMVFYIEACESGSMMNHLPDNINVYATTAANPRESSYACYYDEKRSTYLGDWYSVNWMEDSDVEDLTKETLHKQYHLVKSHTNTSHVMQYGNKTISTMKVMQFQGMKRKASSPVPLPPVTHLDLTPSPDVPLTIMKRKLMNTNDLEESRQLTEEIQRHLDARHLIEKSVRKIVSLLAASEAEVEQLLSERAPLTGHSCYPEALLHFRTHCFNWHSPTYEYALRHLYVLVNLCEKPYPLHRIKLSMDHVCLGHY

[27] = system: OCI-Ly3; experiment: Antiproliferative activity against human OCILY3 cells by cell proliferation assay; assay type: functional, cell-based
[28] = Metabolic stability in human microsome assessed as half life; assay type: ADME; parameters: dose or concentration left out as unconfirmed; conditions: microsomes, read-out: Stabilty
[29] = biological target: Caspase-8 (Homo sapiens) (UniProt Q14790); experiment: Inhibition of Caspase 8 (unknown origin) at 10 uM
Caspase-8 (Homo sapiens), sequence (Q14790 217-374 limits assumed): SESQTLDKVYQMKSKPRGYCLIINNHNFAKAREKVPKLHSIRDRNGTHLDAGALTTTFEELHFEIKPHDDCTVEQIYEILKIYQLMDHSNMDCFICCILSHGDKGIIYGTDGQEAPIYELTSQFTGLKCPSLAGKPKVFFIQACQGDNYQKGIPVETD
Caspase-8 (Homo sapiens), sequence (Q14790 385-479 limits assumed): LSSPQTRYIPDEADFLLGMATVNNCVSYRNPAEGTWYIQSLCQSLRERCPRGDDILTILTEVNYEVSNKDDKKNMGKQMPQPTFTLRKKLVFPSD

[30] = biological target: Cathepsin G (Homo sapiens) (UniProt P08311); experiment: Inhibition of cathepsin G (unknown origin) at 10 uM
Cathepsin G (Homo sapiens), sequence (P08311 whole entry): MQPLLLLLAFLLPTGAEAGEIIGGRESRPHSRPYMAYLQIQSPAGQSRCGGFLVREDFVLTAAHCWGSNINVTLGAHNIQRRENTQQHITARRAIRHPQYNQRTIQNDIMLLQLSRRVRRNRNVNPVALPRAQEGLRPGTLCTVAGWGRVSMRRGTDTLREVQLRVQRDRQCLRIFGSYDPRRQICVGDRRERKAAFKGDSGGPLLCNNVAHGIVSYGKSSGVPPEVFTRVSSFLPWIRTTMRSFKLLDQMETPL

[31] = biological target: Cathepsin E (Homo sapiens) (UniProt P14091); experiment: Inhibition of cathepsin E (unknown origin) at 10 uM
[32] = biological target: Coagulation factor X (Homo sapiens) (UniProt P00742); experiment: Inhibition of factor Xa (unknown origin) at 10 uM
Coagulation factor X (Homo sapiens), sequence (P00742 41-179 limits assumed): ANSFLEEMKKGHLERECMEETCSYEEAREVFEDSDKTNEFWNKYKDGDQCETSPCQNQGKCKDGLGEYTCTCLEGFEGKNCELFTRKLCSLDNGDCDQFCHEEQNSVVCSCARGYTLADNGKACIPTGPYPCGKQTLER
Coagulation factor X (Homo sapiens), sequence (P00742 235-488 limits assumed): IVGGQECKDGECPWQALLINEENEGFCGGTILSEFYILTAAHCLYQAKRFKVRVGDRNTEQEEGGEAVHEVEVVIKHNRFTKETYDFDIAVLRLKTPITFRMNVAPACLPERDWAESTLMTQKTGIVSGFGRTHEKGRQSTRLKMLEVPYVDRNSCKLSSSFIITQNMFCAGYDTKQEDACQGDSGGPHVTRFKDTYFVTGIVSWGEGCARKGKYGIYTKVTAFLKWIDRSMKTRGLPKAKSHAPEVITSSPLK

[33] = biological target: Caspase-5 (Homo sapiens) (UniProt P51878); experiment: Inhibition of Caspase 5 (unknown origin) at 10 uM
Caspase-5 (Homo sapiens), sequence (P51878 137-327 limits assumed): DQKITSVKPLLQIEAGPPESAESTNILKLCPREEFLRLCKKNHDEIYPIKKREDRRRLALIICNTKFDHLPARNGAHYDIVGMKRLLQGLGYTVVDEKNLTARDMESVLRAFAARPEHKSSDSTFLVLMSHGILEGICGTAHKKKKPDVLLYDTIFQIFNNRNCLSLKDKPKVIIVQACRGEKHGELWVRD
Caspase-5 (Homo sapiens), sequence (P51878 347-434 limits assumed): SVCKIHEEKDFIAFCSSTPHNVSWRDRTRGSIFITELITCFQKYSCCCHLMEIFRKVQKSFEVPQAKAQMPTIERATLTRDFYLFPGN

[34] = biological target: Caspase-7 (Homo sapiens) (UniProt P55210); experiment: Inhibition of Caspase 7 (unknown origin) at 10 uM
Caspase-7 (Homo sapiens), sequence (P55210 24-198 limits assumed): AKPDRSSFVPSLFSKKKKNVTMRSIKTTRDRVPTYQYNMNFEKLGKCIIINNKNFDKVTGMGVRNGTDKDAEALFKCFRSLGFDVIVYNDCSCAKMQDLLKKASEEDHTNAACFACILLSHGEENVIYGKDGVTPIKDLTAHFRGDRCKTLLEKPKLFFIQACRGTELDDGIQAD
Caspase-7 (Homo sapiens), sequence (P55210 207-303 limits assumed): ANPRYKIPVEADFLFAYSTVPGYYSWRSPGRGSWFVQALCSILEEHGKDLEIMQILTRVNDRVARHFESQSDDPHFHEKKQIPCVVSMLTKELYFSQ

[35] = biological target: Caspase-1 (Homo sapiens) (UniProt P29466); experiment: Inhibition of Caspase 1 (unknown origin) at 10 uM
Caspase-1 (Homo sapiens), sequence (P29466 120-297 limits assumed): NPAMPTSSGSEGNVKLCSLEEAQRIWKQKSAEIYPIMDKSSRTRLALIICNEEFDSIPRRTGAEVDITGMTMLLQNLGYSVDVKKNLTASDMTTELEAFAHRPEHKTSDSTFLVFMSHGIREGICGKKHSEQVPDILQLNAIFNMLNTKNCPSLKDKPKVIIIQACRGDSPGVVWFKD
Caspase-1 (Homo sapiens), sequence (P29466 317-404 limits assumed): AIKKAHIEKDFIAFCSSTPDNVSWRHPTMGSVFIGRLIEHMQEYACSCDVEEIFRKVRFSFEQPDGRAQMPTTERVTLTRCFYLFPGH

[36] = biological target: Cathepsin D (Homo sapiens) (UniProt P07339); experiment: Inhibition of cathepsin D (unknown origin) at 10 uM
Cathepsin D (Homo sapiens), sequence (P07339 65-162 limits assumed): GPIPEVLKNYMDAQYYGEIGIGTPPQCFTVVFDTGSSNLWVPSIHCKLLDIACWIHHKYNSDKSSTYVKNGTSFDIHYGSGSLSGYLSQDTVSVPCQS
Cathepsin D (Homo sapiens), sequence (P07339 169-412 limits assumed): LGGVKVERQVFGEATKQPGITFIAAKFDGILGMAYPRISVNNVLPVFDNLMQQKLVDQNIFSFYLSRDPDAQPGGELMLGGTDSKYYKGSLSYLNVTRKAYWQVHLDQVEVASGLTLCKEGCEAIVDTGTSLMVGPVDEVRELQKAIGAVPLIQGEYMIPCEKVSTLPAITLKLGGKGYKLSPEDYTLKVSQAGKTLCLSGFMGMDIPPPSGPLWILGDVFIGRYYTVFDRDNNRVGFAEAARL

[37] = biological target: Cathepsin L2 (Homo sapiens) (UniProt O60911); experiment: Inhibition of cathepsin V (unknown origin) at 10 uM
Cathepsin L2 (Homo sapiens), sequence (O60911 whole entry): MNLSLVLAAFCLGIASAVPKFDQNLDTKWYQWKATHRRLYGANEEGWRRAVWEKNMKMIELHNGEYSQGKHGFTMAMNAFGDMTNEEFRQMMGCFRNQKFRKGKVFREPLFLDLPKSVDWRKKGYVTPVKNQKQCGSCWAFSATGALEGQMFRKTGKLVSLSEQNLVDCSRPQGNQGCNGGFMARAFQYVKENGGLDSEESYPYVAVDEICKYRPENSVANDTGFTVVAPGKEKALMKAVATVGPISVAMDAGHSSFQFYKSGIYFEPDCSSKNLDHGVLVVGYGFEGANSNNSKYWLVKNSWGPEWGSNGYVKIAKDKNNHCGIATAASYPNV

[38] = biological target: Caspase-2 (Homo sapiens) (UniProt P42575); experiment: Inhibition of Caspase 2 (unknown origin) at 10 uM
Caspase-2 (Homo sapiens), sequence (P42575 170-325 limits assumed): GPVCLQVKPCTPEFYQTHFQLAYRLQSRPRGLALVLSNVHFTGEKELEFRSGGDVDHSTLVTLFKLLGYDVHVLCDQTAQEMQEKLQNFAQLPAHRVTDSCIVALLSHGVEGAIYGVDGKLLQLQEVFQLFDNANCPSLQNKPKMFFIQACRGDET
Caspase-2 (Homo sapiens), sequence (P42575 334-452 limits assumed): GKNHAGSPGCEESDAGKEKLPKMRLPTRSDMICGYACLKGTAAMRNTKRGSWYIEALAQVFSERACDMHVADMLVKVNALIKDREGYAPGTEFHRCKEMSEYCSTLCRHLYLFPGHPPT

Cathepsin S (Homo sapiens), sequence (P25774 115-331 limits assumed): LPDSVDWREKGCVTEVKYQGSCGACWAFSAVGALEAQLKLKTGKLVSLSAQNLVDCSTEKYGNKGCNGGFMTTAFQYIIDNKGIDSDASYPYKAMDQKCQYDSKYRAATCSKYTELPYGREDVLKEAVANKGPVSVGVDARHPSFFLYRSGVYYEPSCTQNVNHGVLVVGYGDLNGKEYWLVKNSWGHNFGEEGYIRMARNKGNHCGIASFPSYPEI

| inhibition [1] | inhibition [3] | inhibition [4] | inhibition [6] | inhibition [7] | inhibition [8] | inhibition [10] | inhibition [11] | inhibition [12] | inhibition [14] | inhibition [16] | inhibition [18] | inhibition [19] | inhibition [21] | inhibition [23] | inhibition [24] | inhibition [25] | inhibition [26] | EC50 [27] | inhibition [29] | also measured | SMILES |
| --- | --- | --- | --- | --- | --- | --- | --- | --- | --- | --- | --- | --- | --- | --- | --- | --- | --- | --- | --- | --- | --- |
| 15.7% | 17.5% | -5.2% | -9.4% | 1.9% | 21.9% | -9% | -2.6% | 1% | 9% | 11.8% | 1% | 2% | 18.8% | 22% | -3.9% | 14.1% | -4.2% | 360 nM | 10.8% | solubility [2]: < 4 µM; bioavailability [5]: 19%; half-life [9]: 3.2 h; fraction unbound [13]: 0.022; clearance [15]: 1.6 mL/min/kg; half-life [17]: 2.12 h; AUC(0-inf) [20]: 10100 ng·h/mL; fraction unbound [22]: 0.025; half-life [28]: 0.717 h | CCOC(C)c1c(NC(=O)Nc2cnc(-n3nccn3)c(Cl)c2)cnc2sc(C)nc12 (stereo not drawn) |
| 100% | 89.2% | 89.9% | 98.8% | 100% | 99.7% | 99.7% | 94.8% | 99.9% | 110% | 102% | 99.9% | 99.4% | 98.7% | 108% | 88.1% | 98.8% | 88.4% | 120 nM | 99.7% | inhibition [30]: 92.5%; inhibition [31]: 100%; inhibition [32]: 99.8%; inhibition [33]: 92.6%; inhibition [34]: 98.1%; inhibition [35]: 99.7%; inhibition [36]: 99.8%; inhibition [37]: 99%; inhibition [38]: 87.3% | CO[C@@H](C)c1c(NC(=O)Nc2cnc(-n3nccn3)c(Cl)c2)cnc2cc(Cl)nn12 |
